Assay results published in patent US20240142457A1, “USE OF CASD1 AS A BIOMARKER OF A CANCER EXPRESSING THE O-ACETYLATED-GD2 GANGLIOSIDE” (OGD2 PHARMA, priority 2021, published 2024).

Experiments:
MDA-MB-231 GD3S+ cells = assay: Transwell migration assay; format: cell-based, human; conditions: 1 μM NVP231, 24 hours, vs untreated
Description: (§1) Transfections were performed with 10 μM of siRNA control non-targeting (D001810-10-20, Horizon), siRNA targeting CASD1 (L-016926-01-0010, Horizon), or two different siRNA targeting CERK: CERK2 (D-004061-02-0010, Horizon), or CERK4 ([…], Horizon) and 4 μL of RNAimax (#137781, Thermo fischer Scientific) in 500 μL of UltraMEM (Lonza). In 6-well plates, 150,000 cells were grown in 1,5 mL of DMEM and transfection mix. Cells were collected 72 hours after transfection for qPCR or immunocytochemistry experiments.
Cells were seeded in 12-well plates containing migration chamber in serum-free medium. Below the chamber, medium with serum was added into the wells in the presence or absence of 1 μM of NVP231. After 24 hours incubation at 37° C., wells were fixed with 4% paraformaldehyde and non-migratory cells were swapped with cotton swabs. Cells were washed three times and nuclei were stained with DAPI. Membranes were cut out and mounted between glass slide and coverslip with fluorescent mounting medium. Nuclei were counted using A1 Nikon confocal microscopy.

[1] = test system: OAcGD2 expression in MDA-MB-231 GD3S+ cells; assay: OAcGD2 immunocytochemistry and confocal microscopy after CERK inhibitor or siRNA; format: cell-based, human; conditions: 1 μM NVP231, 2, 4, 6, 8, 20, 24 or 48 hours; increase from 2 to 8 hours, decrease after 8 hours
Description: as §1
Cells were seeded in 6-well plates (150,000 cells/well) with coverslips in 2 mL of DMEM medium. After 24 hours, the medium was replaced with DMEM containing 1 μM of the CERK inhibitor NVP231 (SigmaN9289). After 2 h, 4 h, 6 h, 8 h, 20 h, 24 h or 48 h of CERK inhibitor treatment, cells were collected for immunocytochemistry experiments.
Transfected cells were grown on glass coverslips and were fixed for 20 min in 4% paraformaldehyde. Cells were washed three times with PBS 1X and membrane permeabilization was performed in 5 μg/mL digitonine in PBS 1X for 20 min. After 3 washes, cells were saturated in PBS 1X-BSA 0.5% blocking buffer. […] The green fluorescence was acquired with λex=488 nm and λem=500-530 nm, DAPI with λex=350 nm and λem=460 nm. […] Mean fluorescence intensity was calculated with macro using ImageJ.

[2] = test system: OAcGD2 expression in MDA-MB-231 GD3S+ cells; assay: siRNA screen, OAcGD2 immunofluorescence (8B6 mAb) with automated imaging; format: cell-based, human; conditions: fixed cells treated with NaOH 0.1M before primary antibody staining, compared to siNT transfected wells
Description: 2.5 μL/well of 500 nM siGenome siRNA (Dharmacon/Horizon) was printed into blackwalled 384 well cell carrier ultra plates (Perkin Elmer) with Velocity 11 (Agilent) as described before (Chia et al., 2012, Mol. Syst. Biol., 8: 629.). Reverse siRNA transfection was performed by pre-mixing 0.1 μL of Dharmafect 1 transfection reagent (#T-2001-03, Horizon) with 7.4 μL of Optimem for 5 minutes. Addition of mixture to the siRNA plate was then performed with small multidrop combi cassette (Thermo-Fisher) and was left for complexation for 20 minutes with shaking. Addition of 2750 cells in 40 μL of DMEM supplemented with 10% FCS per well was then performed with multidrop combi standard cassette at medium speed (Thermo-Fisher). siRNA targeting-GD2S (L-011279-00-0020, Horizon), Polo like kinase 1 (PLK1; L-003290-00-0020, Horizon) and […] (D-001810-10-20, Horizon) were used as screen controls.
After 72 h of incubation, transfected cells were fixed with 50 μL per well of 4% paraformaldehyde in 2% sucrose and 0.1M sodium phosphate buffer, […] at 37° C. […]
An OAcGD2 expression metric was derived with total cell thresholded fluorescence intensity obtained by immunodetection with 8B6 mAb in MDA-MB-231 GD3S+cells and was normalized with Hoeschst nuclei counts. […]

[3] = attributed to GD2 expression in healthy peripheral nerve fibers; cited from earlier work

With `O=C(Nc1nc2ccc(NC(=O)C34CC5CC(CC(C5)C3)C4)cc2s1)c1ccccc1` [CERK inhibitor, NVP231] the “migration capacity of the cells” value (MDA-MB-231 GD3S+ cells) was “no effect” and the “OAcGD2 expression (mean fluorescence intensity)” value [1] was “transitory overexpression”.

With `[Na+].[OH-]` [NaOH, Sodium hydroxide] the OAcGD2 staining [2] was “abolished”.

B1: Dinutuximab: anti-GD2 monoclonal antibody approved for pediatric high-risk neuroblastoma (antibody, chains of the INN, looked up, V domains shown)
VH: EVQLLQSGPELEKPGASVMISCKASGSSFTGYNMNWVRQNIGKSLEWIGAIDPYYGGTSYNQKFKGRATLTVDKSSSTAYMHLKSLTSEDSAVYYCVSGMEYWGQGTSVTVSS
VL: EIVMTQSPATLSVSPGERATLSCRSSQSLVHRNGNTYLHWYLQKPGQSPKLLIHKVSNRFSGVPDRFSGSGSGTDFTLKISRVEAEDLGVYFCSQSTHVPPLTFGAGTKLELK
For B1, the side effects [3] is given as “severe side effects”.
